In US9610263B2, “Method of modulating membrane potential of a cell” (VERSITECH LIMITED, priority 2007, dated 2017):
Entries after “also recorded” stand apart in the source; their conditions may differ.

What was measured:
[1] = system: mouse thoracic aortic rings; assay: Vasorelaxation of aortic rings preconstricted by high-K solution (organ bath); conditions: aortic rings preconstricted by high-K (60 mM K+) solution, n=5, read-out: half-maximal relaxation value IC50
Source text: Example 52 was for investigating whether Example 2 could promote vasorelaxation during vasoconstriction induced by depolarization. Mouse thoracic aortic rings was mounted in an organ bath apparatus and measured their muscular activity.

[2] = Membrane potential of valinomycin-polarized liposomes (safranin O); assay type: biochemical; conditions: KCl-loaded EYPC-liposomes in KCl/Na2SO4; external addition alone
Source text: The ability of Example 2 to modulate membrane potentials in polarized liposomes was investigated. […] This depolarization process induced by Example 2 may be attributed to the formation of chloride channels by Example 2 that mediate chloride ions flow out of the polarized liposomes to balance the electrostatic potential established by valinomycin.

[3] = system: Madin-Darby canine kidney (MDCK) cells; assay: Membrane potential of living cells with bis-oxonol (DiBAC4(3)); assay type: cell-based
Source text: To determine the potential of Example 2 for application in biological and medicinal science, Example 2 was investigated for incorporating into the plasma membranes of living cells and, thereby, modulating their membrane potentials by increasing chloride permeability of the cell membranes. A potential-sensitive dye his-oxonal was used to measure the relative changes in membrane potential of the Madin-Darby canine kidney (MDCK) cells, a model for the renal distal tubule and collecting duct that secrete chloride ions. An increase in fluorescence of bis-oxonal indicated cell depolarization while a decrease indicated hyperpolarization. […] This depolarization effect could be ascribed to that the chloride equilibrium potential (ECl) was higher than the resting membrane potential in MDCK cells. Thus, the opening of chloride channels shifted the membrane potential towards the ECl.
In summary, FIG. 14A-E show the effects of adding different substances, including Example 2, on the membrane potential of Madin-Darby canine kidney (MDCK) cells. Membrane potentials of MDCK cells were monitored by the changes of emission intensity of the potential-sensitive dye bis-oxonol (DiBAC4(3)). The increase in the fluorescence intensity indicates depolarization. […] Each point in FIG. 14A-E represents the mean±s.e. (n=20-80 cells in 4-6 experiments).

| melting point [°C] | SMILES | other results |
| --- | --- | --- |
| 88 to 90 | CCCCCCCCCCCCCCCCCCNC(=O)[C@@H](CC(C)C)ONC(=O)c1cccc(C(=O)NO[C@H](CC(C)C)C(=O)NCCCCCCCCCCCCCCCCCC)c1 [Example 5] | – |
| 175 to 177 | CC(C)CNC(=O)[C@@H](CC(C)C)ONC(=O)c1cccc(C(=O)NO[C@H](CC(C)C)C(=O)NCC(C)C)n1 [Example 7] | – |
| 240 to 242 | CC(C)CNC(=O)[C@H](CC(C)C)NC(=O)c1cccc(C(=O)N[C@@H](CC(C)C)C(=O)NCC(C)C)c1 [Example 8] | – |
| – | CC(C)CNC(=O)[C@@H](CC(C)C)ONC(=O)c1cccc(C(=O)NO[C@H](CC(C)C)C(=O)NCC(C)C)c1 [Example 2] | IC50 [1]: 8.42 ± 0.18 µM |
| 174 to 176 | CC(C)CNC(=O)[C@@H](CO)ONC(=O)c1cccc(C(=O)NO[C@H](CO)C(=O)NCC(C)C)c1 [Example 36] | – |
| 145 to 148 | CC(C)CNC(=O)[C@@H](Cc1ccccc1)ONC(=O)c1cccc(C(=O)NO[C@H](Cc2ccccc2)C(=O)NCC(C)C)c1 [Example 37] | – |
| – | CC(C)[C@@H]1NC(=O)[C@H](C)OC(=O)[C@@H](C(C)C)NC(=O)[C@@H](C(C)C)OC(=O)[C@H](C(C)C)NC(=O)[C@H](C)OC(=O)[C@@H](C(C)C)NC(=O)[C@@H](C(C)C)OC(=O)[C@H](C(C)C)NC(=O)[C@H](C)OC(=O)[C@@H](C(C)C)NC(=O)[C@@H](C(C)C)OC1=O [valinomycin] | membrane potential of liposomes [2]: polarized the liposome |
| 137 to 139 | CC(C)CNC(=O)[C@H](CC(C)C)OC(=O)c1cccc(C(=O)O[C@@H](CC(C)C)C(=O)NCC(C)C)c1 [Example 9] | – |
| 130 to 132 | CC(C)CNC(=O)[C@@H](CC(C)C)ONC(=O)c1ccccc1 [Example 6] | – |
| 57 to 59 | CC(C)C[C@@H](ONC(=O)c1cccc(C(=O)NO[C@H](CC(C)C)C(=O)OC(C)(C)C)c1)C(=O)OC(C)(C)C [Example 1] | – |
| – | O=C(O)c1ccccc1Nc1ccccc1 [DPC, diphenylamine-2-carboxylate] | membrane potential (bis-oxonol fluorescence) ([3]; 1 mM added alone): hyperpolarization of the membrane potential; depolarization induced by low-chloride extracellular solution ([3]; 60 mM Cl- Ringer's solution in presence of 1 mM blocker): entirely inhibited the depolarization effect; also recorded: did not result in depolarization |
